Series [1] addresses T1, Aurora-A (Homo sapiens, UniProt O14965).
T1 construct: host or cells: Sf9 (baculovirus)
T1 sequence (O14965 1-403): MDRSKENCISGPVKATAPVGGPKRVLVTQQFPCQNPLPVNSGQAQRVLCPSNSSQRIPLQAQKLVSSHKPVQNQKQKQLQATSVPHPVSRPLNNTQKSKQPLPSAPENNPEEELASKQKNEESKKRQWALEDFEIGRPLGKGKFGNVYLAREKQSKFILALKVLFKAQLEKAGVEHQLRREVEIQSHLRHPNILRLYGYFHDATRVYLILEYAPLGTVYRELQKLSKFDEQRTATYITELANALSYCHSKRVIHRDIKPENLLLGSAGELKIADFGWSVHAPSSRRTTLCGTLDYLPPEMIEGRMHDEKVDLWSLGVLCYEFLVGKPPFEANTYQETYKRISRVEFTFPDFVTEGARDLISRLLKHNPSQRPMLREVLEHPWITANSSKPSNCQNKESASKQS
In words: radiometric 33PanQinase protein kinase assay. Type of series: biochemical. As to conditions: for IC50: radiometric assay, 1 µM ATP; for remaining activity at 10 µM: 10 µM compound, residual kinase activity. How it is done:
(§1) The inhibitory activity of prototype 2a was determined in a panel of 24 tumor-relevant protein kinases using a radiometric assay. Only the kinases Aurora A, VEGF-R2 and VEGF-R3 were inhibited with single digit micromolar IC50 values (Table 2). Structural modifications were then implemented, particularly directed to improve inhibition of Aurora A. The so-designed congeners with small substituents at the aniline ring 2b–2n were examined for inhibition of Aurora A and of VEGF-R2, VEGF-R3 and Aurora B for comparison (Table 3).
(§2) The screening for protein kinase inhibition was performed with the radiometric ^33Panqinase activity assay at Reaction Biology Europe GmbH (Freiburg) using a robotic system (Beckmann Coulter/SagianRoboter) and 96-well plates (FlashPlates, Perkin/Elmer/NEN, Boston, MA, USA). In brief, the transfer of ^33P-phosphate into the substrate was measured with a microplate scintillation counter (Microbeta Trilux, Wallace). Protein kinases were expressed in Sf9 cells as recombinant glutathione S-transferase (GST) or polyhistidine (His)-tagged proteins in baculovirus. Isolation and purification of expressed kinases were performed with affinity chromatography by using GSH agarose (Sigma) or Ni-NTA agarose (Qiagen). The standard solution for each enzyme contained: 60 mM HEPES-NaOH (pH 7.5), 3 mM MgCl2, 3 µM sodium orthovanadate, 1.2 mM DTT, 50 µg/mL PEG20000 and 1 µM [γ-^33P]-ATP (approximately 5 × 10^5 cpm per well). In chronological order the reaction mixture was prepared: 20 µL standard solution, 5 µL ATP solution in water, 5 µL of the compound in 10% DMSO and 20 µL of enzyme/substrate mixture (50:50). Each kinase contained different substrates in different concentrations: 125 ng/50 µL Poly(Glu, Tyr)4:1 for 20 ng/50 µL IGF1-R, 25 ng/50 µL IGF1-R, 20 ng/50 µL EGF-R, 25 ng/50 µL EGF-R, 40 ng/50 µL EGF-R, 10 ng/50 µL EPHB4, 20 ng/50 µL EPHB4, 200 ng/50 µL ERBB2, 10 ng/50 µL SRC, 100 ng/50 µL FAK, 200 ng/50 µL FAK, 50 ng/50 µL VEGF-R2, 100 ng/50 µL VEGF-R3, 200 ng/50 µLTIE2; 250 ng/50 µL Poly(Glu, Tyr)4:1 for 200 ng/50 µL TIE2; 500 ng/50 µL tetra (LRRWSLG) for 50 ng/50 µL Aurora-A, 25 ng/50 µL PAK4, 25 ng/50 µL PDK1; 250 ng/50 µL tetra (LRRWSLG) for 50 ng/50 µL Aurora-B, 200 ng/50 µL Aurora-B; 125 ng/50 µL Histon H1 for 100 ng/50 µL CDK2/CycA; 250 ng/50 µL Rb-CTF for 50 ng/50 µL CDK/CycD1; 500 ng/50 µL Rb-CTF for 50 ng/50 µL CDK4/CycD1; 125 ng/50 µL Poly(ala, Glu, Lys, Tyr)6:2:5:1 for 25 ng/50 µL INS-R, 50 ng/50 µL PDGFR-beta, 100 ng/50 µL PDGFR-beta, 100 ng/50 µL FLT3, 150 ng/50 µL FLT3, 20 ng/50 µL MET, 50 ng/50 µL MET, 100 ng/50 µL MET; 250 ng/50 µL Casein for 200 ng/50 µL CK2-alpha1, 200 ng/50 µL PLK1; 1000 ng/50 µL Casein for 200 ng/50 µL PLK1, 200 ng/50 µL CK2-alpha1; 1000 ng/50 µLGSK3 (14–27) for 100 ng/50 µL AKT1; 125 ng/50 µL p53-CTM for 150 ng/50 µL CK2-alpha1, 200 ng/50 µLCK2-alpha1; 250 ng/50 µL MEK-KM for 20 ng/50 µL B-RAF-VE; autophosphorylation at ARK5, COT and SAK. After incubation (80 min, 30 °C) the reaction was stopped by adding 50 µL 2% (v/v) phosphoric acid to the reaction mixture. The microplate was washed twice with 200 µL 0.9% (v/v) saturated sodium chloride or water. The measured radioactivity, conditioned by the incorporation of [γ-^33P]-phosphate, is proportional to kinase activity. Furthermore, low control and high control were measured to determine the residual activity (%). As low controls, mixtures with substrate, but without enzyme were used to determine the unspecific binding of [γ-^33P]-phosphate to the well plate. Mixtures with enzyme, but without inhibitor were used as high controls to determine maximum enzyme activity. The IC50-values of the distinct compounds were calculated with Quattro Workflow V1.1.0.8 (Quattro Research GmbH, München, Germany). Dose response curves were generated by measurement of the residual activity of ten different inhibitor concentrations (0.1 mM, 30.0 µM, 10 µM, 3.0 µM, 1.0 µM, 0.3 µM, 0.1 µM, 30.0 nM, 10.0 nM and 3.0 nM). […]

For series [2], the target named is T2, Aurora-B (Homo sapiens, UniProt Q96GD4).
T2 construct: host or cells: Sf9 (baculovirus)
In words: radiometric 33PanQinase protein kinase assay. Type of series: biochemical. To be noted: for IC50: radiometric assay, 1 µM ATP; for remaining activity at 10 µM: 10 µM compound, residual kinase activity. How it is done:
as §1, §2

Series [3] concerns the target T3, VEGF-R3 (Homo sapiens, UniProt P35916).
T3 construct: host or cells: Sf9 (baculovirus)
The series can be described thus: radiometric 33PanQinase protein kinase assay. The format is biochemical. As to conditions: for IC50: radiometric assay, 1 µM ATP; for remaining activity at 10 µM: 10 µM compound, residual kinase activity. How it is done: as §1, §2

Series [4] deals with T4, VEGF-R2 (Homo sapiens, UniProt P35968).
T4 construct: host or cells: Sf9 (baculovirus)
In words: radiometric 33PanQinase protein kinase assay. Type of series: biochemical. To be noted: for IC50: radiometric assay, 1 µM ATP; for remaining activity at 10 µM: 10 µM compound, residual kinase activity. How it is done: as §1, §2

The nature of series [5]: kinetic solubility by nephelometry. To be noted: phosphate buffer, 25 °C, pH 7.4, aqueous buffer, kinetic from dmso stock, phosphate buffer pH 7.4, 1% DMSO, mean of two measurements, range in brackets. Type of series: physicochemical. How it is done: The kinetic solubility of test compounds was determined by nephelometry. Dilution series of test compounds in DMSO with eight to ten different concentrations were prepared. The dilutions were pipetted (2 µL) into the cavities of a 96 well plate (CorningTM UV-transparent flat-bottom microtiter plate; Corning Incorporated, Kennebunk, ME, USA). A phosphate buffer solution pH 7.4 (198 µL) was added, so that the DMSO concentration in the measured solutions was 1%. Three wells were filled with DMSO and phosphate buffer pH 7.4 (2:198) and measured as blank values. The 96 well plate prepared in this way was measured with the NEPHELOstar® Plus nephelometer (BMG Labtech GmbH, Ortenberg, Germany, software: Omega 5.11) at a temperature of 25 °C. Previously, the plate was shaken at 500 rpm for 10 s and the laser intensity was set to 80%. The beam focus was set to 2.50 mm. If the test substance is completely soluble, only a scattering close to the blank value is detected. As soon as a critical concentration is reached in which the kinetic solubility of the test compound is exceeded, solid particles precipitate. Undissolved particles in the sample scatter the laser beam. The intensity of the scattered light is determined, which is proportional to the number of particles in the solution. The blank values were determined and subtracted from the measured values of the test compounds. By measuring different concentrations of the test substances, different intensities of the scattered light, indicated as RNU (relative nephelometric units), were determined. Kick off curves were obtained by plotting concentrations against the RNU values. The point of intersection of the horizontal and of the ascending part of the kick-off curve indicated the kinetic solubility concentration.

The values below come from article PMC7998669, “7-(2-Anilinopyrimidin-4-yl)-1-benzazepin-2-ones Designed by a “Cut and Glue” Strategy Are Dual Aurora A/VEGF-R Kinase Inhibitors” (Molecules, 2021).

Structures are written as SMILES. In brackets after ≈: the same amount, converted by molar mass.

T3 sequence (P35916 25-1363): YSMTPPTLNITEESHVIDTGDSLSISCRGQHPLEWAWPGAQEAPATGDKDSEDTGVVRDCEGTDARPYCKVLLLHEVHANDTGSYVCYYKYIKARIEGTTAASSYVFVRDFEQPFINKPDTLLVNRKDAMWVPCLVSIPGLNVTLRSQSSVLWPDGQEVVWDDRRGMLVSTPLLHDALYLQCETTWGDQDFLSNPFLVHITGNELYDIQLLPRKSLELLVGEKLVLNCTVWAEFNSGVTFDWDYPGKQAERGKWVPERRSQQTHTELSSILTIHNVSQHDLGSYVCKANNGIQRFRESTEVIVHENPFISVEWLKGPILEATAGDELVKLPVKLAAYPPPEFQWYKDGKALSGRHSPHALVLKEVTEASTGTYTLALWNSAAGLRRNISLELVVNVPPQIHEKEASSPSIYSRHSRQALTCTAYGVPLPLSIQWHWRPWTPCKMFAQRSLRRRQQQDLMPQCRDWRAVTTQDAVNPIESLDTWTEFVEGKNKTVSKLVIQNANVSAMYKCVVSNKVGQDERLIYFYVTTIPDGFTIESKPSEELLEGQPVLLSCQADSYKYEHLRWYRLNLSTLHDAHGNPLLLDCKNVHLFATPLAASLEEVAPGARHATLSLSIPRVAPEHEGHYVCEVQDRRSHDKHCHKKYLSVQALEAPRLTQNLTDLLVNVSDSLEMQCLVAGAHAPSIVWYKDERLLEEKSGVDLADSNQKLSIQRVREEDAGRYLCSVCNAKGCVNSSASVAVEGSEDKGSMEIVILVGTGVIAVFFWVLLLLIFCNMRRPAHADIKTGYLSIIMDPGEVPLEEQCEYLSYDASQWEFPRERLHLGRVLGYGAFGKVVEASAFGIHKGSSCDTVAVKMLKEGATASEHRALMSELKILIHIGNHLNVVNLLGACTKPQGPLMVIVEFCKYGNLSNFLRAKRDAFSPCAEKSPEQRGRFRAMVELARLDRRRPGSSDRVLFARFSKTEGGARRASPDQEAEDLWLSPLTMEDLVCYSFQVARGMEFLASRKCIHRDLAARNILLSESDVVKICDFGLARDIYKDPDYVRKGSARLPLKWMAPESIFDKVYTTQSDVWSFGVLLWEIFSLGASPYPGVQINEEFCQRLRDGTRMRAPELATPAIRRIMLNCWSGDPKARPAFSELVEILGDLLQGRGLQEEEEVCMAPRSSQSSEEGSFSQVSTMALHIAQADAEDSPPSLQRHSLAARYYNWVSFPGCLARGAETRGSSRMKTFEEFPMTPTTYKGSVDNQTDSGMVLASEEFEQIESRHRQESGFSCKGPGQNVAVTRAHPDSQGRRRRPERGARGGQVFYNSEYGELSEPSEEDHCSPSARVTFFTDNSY
T4 sequence (P35968 20-1356): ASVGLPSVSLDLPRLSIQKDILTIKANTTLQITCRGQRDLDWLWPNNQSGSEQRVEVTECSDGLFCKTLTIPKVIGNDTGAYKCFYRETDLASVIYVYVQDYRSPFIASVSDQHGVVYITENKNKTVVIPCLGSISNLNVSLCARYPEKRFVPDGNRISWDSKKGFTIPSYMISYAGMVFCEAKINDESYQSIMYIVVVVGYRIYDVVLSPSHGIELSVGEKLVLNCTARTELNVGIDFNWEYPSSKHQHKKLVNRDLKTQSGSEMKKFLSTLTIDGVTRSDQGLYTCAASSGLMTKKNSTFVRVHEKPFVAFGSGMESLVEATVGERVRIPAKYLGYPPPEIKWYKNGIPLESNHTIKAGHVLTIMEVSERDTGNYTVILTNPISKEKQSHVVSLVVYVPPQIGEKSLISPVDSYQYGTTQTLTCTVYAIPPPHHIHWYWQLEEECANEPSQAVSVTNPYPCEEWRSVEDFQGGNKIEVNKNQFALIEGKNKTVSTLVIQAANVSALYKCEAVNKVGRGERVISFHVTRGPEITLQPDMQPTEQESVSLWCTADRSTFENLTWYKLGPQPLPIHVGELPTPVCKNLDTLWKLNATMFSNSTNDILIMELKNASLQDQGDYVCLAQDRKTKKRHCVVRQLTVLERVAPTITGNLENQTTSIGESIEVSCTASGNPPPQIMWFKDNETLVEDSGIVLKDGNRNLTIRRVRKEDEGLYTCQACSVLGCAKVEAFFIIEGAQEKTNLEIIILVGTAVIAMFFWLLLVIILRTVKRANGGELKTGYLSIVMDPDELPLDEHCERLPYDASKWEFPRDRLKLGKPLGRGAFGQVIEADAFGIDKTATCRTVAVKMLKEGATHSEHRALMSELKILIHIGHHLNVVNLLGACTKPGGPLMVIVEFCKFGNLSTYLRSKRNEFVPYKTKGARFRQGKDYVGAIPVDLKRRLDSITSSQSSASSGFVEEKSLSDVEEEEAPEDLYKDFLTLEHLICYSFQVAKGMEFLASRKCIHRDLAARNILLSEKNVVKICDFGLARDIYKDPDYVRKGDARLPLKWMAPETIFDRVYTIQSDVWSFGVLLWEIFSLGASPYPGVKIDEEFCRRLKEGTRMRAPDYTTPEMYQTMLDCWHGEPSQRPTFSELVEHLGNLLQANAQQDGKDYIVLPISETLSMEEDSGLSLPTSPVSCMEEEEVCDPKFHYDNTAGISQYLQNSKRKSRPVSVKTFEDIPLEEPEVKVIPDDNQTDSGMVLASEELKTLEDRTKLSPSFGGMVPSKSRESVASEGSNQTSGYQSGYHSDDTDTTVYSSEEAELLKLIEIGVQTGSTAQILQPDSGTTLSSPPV
T2 sequence (Q96GD4 whole entry): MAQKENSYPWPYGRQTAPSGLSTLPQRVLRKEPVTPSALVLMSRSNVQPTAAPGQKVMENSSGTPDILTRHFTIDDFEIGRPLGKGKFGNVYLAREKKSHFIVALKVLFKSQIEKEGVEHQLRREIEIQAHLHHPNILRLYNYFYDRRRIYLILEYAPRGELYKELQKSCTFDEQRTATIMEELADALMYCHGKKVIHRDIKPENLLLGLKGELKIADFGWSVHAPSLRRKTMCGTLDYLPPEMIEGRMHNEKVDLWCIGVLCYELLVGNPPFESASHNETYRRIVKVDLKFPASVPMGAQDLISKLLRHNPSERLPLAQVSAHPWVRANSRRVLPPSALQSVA

With `Cc1ccc(Nc2nccc(-c3ccc4c(c3)CCCC(=O)N4)n2)cc1` [Compound 2b, 7-[2-(4-Toluidino)pyrimidin-4-yl]-1,3,4,5-tetrahydro-2H-1-benzazepin-2-one], the half-maximal inhibitory concentration (IC50) in series [1] turned out to be 2.4 µM; in series [2], 16 µM; in series [3], 4.3 µM; in series [4], 1.8 µM.
The like results for `COc1ccc(Nc2nccc(-c3ccc4c(c3)CCCC(=O)N4)n2)cc1` [Compound 2c, 7-[2-(4-Methoxyanilino)pyrimidin-4-yl]-1,3,4,5-tetrahydro-2H-1-benzazepin-2-one] were, in that order, 1.8 µM, 18 µM, 2.5 µM and 1.3 µM.
As to `CCOc1ccc(Nc2nccc(-c3ccc4c(c3)CCCC(=O)N4)n2)cc1` [Compound 2d, 7-[2-(4-Ethoxyanilino)pyrimidin-4-yl]-1,3,4,5-tetrahydro-2H-1-benzazepin-2-one], the half-maximal inhibitory concentration (IC50) was found to be 1.5 µM in series [1], 20 µM in series [2], 3 µM in series [3] and 2 µM in series [4].
As for `O=C1CCCc2cc(-c3ccnc(Nc4ccc(Cl)cc4)n3)ccc2N1` [Compound 2f, 7-[2-(4-Chloroanilino)pyrimidin-4-yl]-1,3,4,5-tetrahydro-2H-1-benzazepin-2-one], the IC50 in series [1] came out at 9.4 µM; in series [2] it was 40 µM; in series [3], 19 µM; in series [4], 11 µM.
The like results for `O=C1CCCc2cc(-c3ccnc(Nc4ccc(Br)cc4)n3)ccc2N1` [Compound 2g, 7-[2-(4-Bromoanilino)pyrimidin-4-yl]-1,3,4,5-tetrahydro-2H-1-benzazepin-2-one] were, in that order, 3.5 µM, 18 µM, 4.1 µM and 5.4 µM.
On the same counts, the results for `O=C1CCCc2cc(-c3ccnc(Nc4ccc(I)cc4)n3)ccc2N1` [Compound 2h, 7-[2-(4-Iodoanilino)pyrimidin-4-yl]-1,3,4,5-tetrahydro-2H-1-benzazepin-2-one] are 3.5 µM, 52 µM, 6.2 µM and 17 µM.
As to `O=C1CCCc2cc(-c3ccnc(Nc4ccc([N+](=O)[O-])cc4)n3)ccc2N1` [Compound 2i, 7-[2-(4-Nitroanilino)pyrimidin-4-yl]-1,3,4,5-tetrahydro-2H-1-benzazepin-2-one], the IC50 in series [1] was more than 100 µM; in series [2], more than 100 µM; in series [3], 35 µM; in series [4], 11 µM.
For the compound `O=C1CCCc2cc(-c3ccnc(Nc4ccccc4O)n3)ccc2N1` [Compound 2j, 7-[2-(2-Hydroxyanilino)pyrimidin-4-yl]-1,3,4,5-tetrahydro-2H-1-benzazepin-2-one], the concentration for half-maximal inhibition (IC50) is more than 100 µM in series [1], more than 100 µM in series [2], 19 µM in series [3] and 8.4 µM in series [4].
With `O=C1CCCc2cc(-c3ccnc(Nc4ccccc4Cl)n3)ccc2N1` [Compound 2k, 7-[2-(2-Chloroanilino)pyrimidin-4-yl]-1,3,4,5-tetrahydro-2H-1-benzazepin-2-one], the remaining activity at 10 µM in series [1] is 74%; in series [2], 87%; in series [3], 72%; in series [4], 74%.
Consider `O=C1CCCc2cc(-c3ccnc(Nc4ccccc4Br)n3)ccc2N1` [Compound 2l, 7-[2-(2-Bromoanilino)pyrimidin-4-yl]-1,3,4,5-tetrahydro-2H-1-benzazepin-2-one], for which the remaining activity at 10 µM was 73% in series [1], 116% in series [2], 64% in series [3] and 78% in series [4].
For the compound `CN1CCN(CCCOc2cccc(Nc3nccc(-c4ccc5c(c4)CCCC(=O)N5)n3)c2)S1(=O)=O` [Compound 14a, 7-{2-[(3-(3-(5-Methyl-1,1-dioxido-1,2,5-thiadiazolidin-2-yl)propoxy)phenyl)amino]pyrimidin-4-yl}-1,3,4,5-tetrahydro-2H-benzo[b]azepin-2-one], the kinetic solubility at 10 s in series [5] came to 25.3 µM (≈ 13.2 µg/mL). This compound showed an IC50 in series [1] of 1.8 µM.
On the same counts, the results for `O=C1CCCc2cc(-c3ccnc(Nc4cccc(OCCCNS(=O)(=O)N5CCOCC5)c4)n3)ccc2N1` [Compound 14b, N-{3-[3-((4-(2-Oxo-2,3,4,5-tetrahydro-1H-benzo[b]azepin-7-yl)pyrimidin-2-yl)amino)phenoxy]-propyl}morpholine-4-sulfonamide] are 19.6 µM (≈ 10.8 µg/mL) and 3 µM.
